In paper PMC5766581, “NF-κB inducing kinase is a therapeutic target for systemic lupus erythematosus” (Nature Communications, 2018):

How the values were obtained:
[1] = system: nuclear RelA (canonical NF-κB signaling); assay: High content nuclear RelA imaging, TNF-stimulated HeLa cells; type: cell-based, human
Protocol: The HeLa cell line was used to define the cellular selectivity of NIK inhibitors toward inhibition of classical vs. non-classical NF-κB signaling using high content cellular imaging assays. For the nuclear translocation assay p52 (non-canonical NF-κB signaling), HeLa cells were treated with different concentrations of compounds previously diluted in DMSO (final [DMSO] = 0.2% in all wells) in DMEM medium (10% FBS, 2 mM Glutamine) and then stimulated with 300 ng/mL of an anti-lymphotoxin beta receptor antibody for 4.5 h. In the REL-A nuclear translocation assay, HeLa cells were incubated with compounds for 4 h 50 min before stimulating them with 2 ng/mL TNF (R&D Systems) for 10 min. Cells were fixed with 4% paraformaldehyde, permeabilized by adding 0.1% Triton X-100 in phosphate buffered saline, and then are incubated with either 2 μg/mL anti-p52 antibody or 400 ng/mL anti-REL-A (p65) antibody. Finally, the cells are incubated with an Alexa488-labeled secondary antibody (Invitrogen) and DRAQ5 DNA stain (Biostatus). Imaging was carried out using an Opera reader (Perkin Elmer) and data were analyzed with Acapella software (Perkin Elmer). The p52 or REL-A translocation into the nucleus is quantified by the ratio of the nuclear to cytoplasmic signal intensity.

[2] = system: rhCD40L induced ICOSL expression on human B cells; assay: ICOSL expression on human B cell assay; type: cell-based; settings: B-cell, ICOSL MFI by FACS, mean ± SD, read-out: CD40-induced ICOSL IC50
Protocol: Human B cells were isolated from whole blood. B cells were enriched by RosetteSep protocol (Stem Cell Technologies), and then isolated using Human B cell isolation kit II (Miltenyi). […] Mean fluorescent intensity (MFI) of CD40L and BAFF induced ICOSL expression was measured by flow cytometry on cells stained with anti-CD20 and anti-ICOSL, using a FACS Calibur instrument (BD). Plots and IC50 measurements were generated using GraphPad Prism Software.

human B cells = assay: Human B cell anti-IgM proliferation assay; type: cell-based; settings: Homo sapiens, B-cell; thymidine incorporation, day four
[3] = system: TWEAK inducible genes in murine RPTEC; assay: TWEAK-induced NIK-dependent gene expression in RPTECs (RNASeq); type: cell-based, mouse; settings: 3 μM
Protocol: Total RNA was extracted using Qiagen RNeasy kit as per manufacturer’s protocol including the on-column DNase digestion. Quality control of samples was done to determine RNA quantity and quality prior to their processing by RNA-seq. The concentration of RNA samples was determined using NanoDrop 8000 (Thermo Scientific) and the integrity of RNA was determined by Fragment Analyzer (Advanced Analytical). 0.5 ug of total RNA was used as an input material for library preparation using TruSeq RNA Sample Preparation Kit v2 (Illumina). Size of the libraries was confirmed using 2200 TapeStation and High Sensitivity D1K screen tape (Agilent Technologies) and their concentration was determined by qPCR based method using Library quantification kit (KAPA). The libraries were multiplexed and then sequenced on Illumina HiSeq2500 (Illumina) to generate 30 M of single end 50 base pair reads. […] Raw RNA sequencing reads were processed using the HTSeqGenie Bioconductor package. Reads were aligned to the reference mouse genome sequence (National Center for Biotechnology Information build 37) using the Genomic Short-Read Nucleotide Alignment Program algorithm. Uniquely aligned read pairs that fell within exons were counted to estimate individual gene expression levels. For inclusion, genes were required to have >10 reads in at least four samples. […] Data were analyzed and plotted using Expression Plot[72].

C57BL/6 mice = assay: Delayed-type hypersensitivity model; type: in vivo, mouse; settings: 200 mg/kg BID P.O.
Protocol: Mice were immunized with OVA (100 μg, SC) (Sigma) in complete Freund’s adjuvant (Spectrum Chemicals and Laboratory Products) on day 0 and then challenged again with OVA (10 μg in PBS, SC right ear) on day 6. Ear thickness was measured by calipers, and unchallenged ear thickness was subtracted from OVA challenged ear thickness after 24 and 44 h. […] Investigators were not blinded to experimental samples.

[4] = system: 222 recombinant human kinases; assay: SelectScreen kinase panel, overall selectivity; type: biochemical; settings: 1 μM
Protocol: The ability of NIK to catalyze the hydrolysis of adenosine-5′-triphosphate (ATP) was monitored using the Transcreener ADP (adenosine-5′-diphosphate) assay (Bell Brook Labs, Fitchburg, WI). Purified human NIK kinase domain (a.a. 340–694) (0.5 nM) or mouse NIK kinase domain (a.a. 329–675) (1 nM) derived from a baculovirus-infected insect cell expression system was incubated with test compounds for 0.5–2 h in 50 mM HEPES buffer (pH 7.2) containing 10 mM MgCl2, 2 mM dithiothreitol, 10 μM ATP, 0.01% Triton X-100, 0.1% gamma-globulins from bovine blood, 1% dimethylsulfoxide (DMSO), 7 μg/mL ADP antibody and 5 nM ADP-MR121 633 tracer. […] The tracer bound to the antibody was displaced by the ADP generated during the NIK reaction, which caused a decrease in fluorescence polarization that was measured by laser excitation at 633 nm with a Fluorescence Correlation Spectroscopy Plus reader (Evotec AG). Equilibrium dissociation constant (Ki) values for NIK inhibitors are calculated from plots of activity vs. inhibitor concentration using Morrison’s quadratic equation that accounts for the potential of tight binding, and by also applying the conversion factor that accounted for competitive inhibition and the concentration of substrate used in the assay relative to its Michaelis constant (Km). The Ki values with hPKD1 (PKCμ) were determined using the same assay conditions as for NIK. […]

Hyl = biological target: T1, Hyl (Homo sapiens, UniProt P42679); assay: SelectScreen kinase panel; type: biochemical
T1 construct: purchased Invitrogen / ThermoFisher SelectScreen
T1 sequence (P42679 whole entry): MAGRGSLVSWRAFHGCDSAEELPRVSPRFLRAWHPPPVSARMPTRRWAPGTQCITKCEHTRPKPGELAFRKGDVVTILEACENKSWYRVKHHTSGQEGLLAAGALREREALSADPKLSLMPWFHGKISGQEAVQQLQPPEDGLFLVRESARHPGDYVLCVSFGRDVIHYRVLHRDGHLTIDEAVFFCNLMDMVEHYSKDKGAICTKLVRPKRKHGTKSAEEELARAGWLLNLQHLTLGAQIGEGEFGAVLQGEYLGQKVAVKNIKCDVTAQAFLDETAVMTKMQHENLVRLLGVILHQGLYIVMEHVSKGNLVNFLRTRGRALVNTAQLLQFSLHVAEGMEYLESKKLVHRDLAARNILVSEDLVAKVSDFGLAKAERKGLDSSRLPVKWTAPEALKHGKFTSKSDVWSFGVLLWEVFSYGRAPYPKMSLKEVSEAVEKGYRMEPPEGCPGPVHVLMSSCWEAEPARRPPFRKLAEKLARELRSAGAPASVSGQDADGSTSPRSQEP

SMILES: COc1cc(C(N)=O)nc(-c2cccc(C#C[C@]3(O)CCN(C)C3=O)c2)c1 [NIK SMI1]
- effect on canonical signaling as measured by TNF alpha-induced nuclear relA levels [1]: no effect
- IC50 ([1]; Homo sapiens, TNF induced): > 2000 nM
- IC50 [2]: 84.6 nM
- IC50 (human B cells): > 10000 nM
- TWEAK inducible gene expression ([3]; 6 and 24 h, RNASeq): majority of TWEAK inducible genes were inhibited
- genes induced by TWEAK and repressed by NIK SMI1 ([3]; RPTEC in vitro): 179 genes
- effect in delayed type hypersensitivity study (C57BL/6 mice): partial effect
- off-target kinases inhibited to an extent >75% [4]: 3 out of 222
- inhibition at 1 µM (Hyl): 4.5%
